# Biological target: Recombinant PRC2 (EZH2-Y641F) (Homo sapiens, UniProt Q15910, Y641F)
# Test: In vitro methyltransferase activity test (LANCE Ultra);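 note: compounds tested as an 8-point threefold dilution series, fluorescence read after 1 h detection step at room temperature, IC50 derived from a four-parameter curve fit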
# Conditions: EZH2 Y641F IC50, Recombinant PRC2 (EZH2-Y641F), LANCE Ultra detection, 3 hours reaction
# Procedure: In Vitro Methyltransferase Activity Test
# Recombinant PRC2 (EZH2-Y641F) was purchased from Active motif, S-adenosyl-methionine (SAM) and Poly-L-lysine (PLL) were purchased from Sigma-Aldrich, H3(1-50)K27mel polypeptide was purchased from Cisbio. LANCEUltra system (Perkinelmer) was used for detection. In the enzyme activity test, a compound to be tested was 1:3 diluted for 8 gradient points, added into a reaction plate, and then added 100 ng recombinant enzyme. And then a buffer [20 mM Tris pH8.5, 2 mM MgCl2, 0.01% Tween-20, 1 mM TCEP] containing 2.5 M SAM/250 nM H3(1-50)K27mel premixture was added to conduct an enzyme reaction at room tempreture. After reacted for 3 hours, a dection solution containing premixed PLL, detection antibody and Ulight was added, reacted for 1 h at RT, then fluorescence was read on Tecan infinite pro. IC50s were calculated by four-factor model fitting in a XLfit software.
# Recombinant PRC2 (EZH2-Y641F), sequence (Q15910 whole entry Y641F): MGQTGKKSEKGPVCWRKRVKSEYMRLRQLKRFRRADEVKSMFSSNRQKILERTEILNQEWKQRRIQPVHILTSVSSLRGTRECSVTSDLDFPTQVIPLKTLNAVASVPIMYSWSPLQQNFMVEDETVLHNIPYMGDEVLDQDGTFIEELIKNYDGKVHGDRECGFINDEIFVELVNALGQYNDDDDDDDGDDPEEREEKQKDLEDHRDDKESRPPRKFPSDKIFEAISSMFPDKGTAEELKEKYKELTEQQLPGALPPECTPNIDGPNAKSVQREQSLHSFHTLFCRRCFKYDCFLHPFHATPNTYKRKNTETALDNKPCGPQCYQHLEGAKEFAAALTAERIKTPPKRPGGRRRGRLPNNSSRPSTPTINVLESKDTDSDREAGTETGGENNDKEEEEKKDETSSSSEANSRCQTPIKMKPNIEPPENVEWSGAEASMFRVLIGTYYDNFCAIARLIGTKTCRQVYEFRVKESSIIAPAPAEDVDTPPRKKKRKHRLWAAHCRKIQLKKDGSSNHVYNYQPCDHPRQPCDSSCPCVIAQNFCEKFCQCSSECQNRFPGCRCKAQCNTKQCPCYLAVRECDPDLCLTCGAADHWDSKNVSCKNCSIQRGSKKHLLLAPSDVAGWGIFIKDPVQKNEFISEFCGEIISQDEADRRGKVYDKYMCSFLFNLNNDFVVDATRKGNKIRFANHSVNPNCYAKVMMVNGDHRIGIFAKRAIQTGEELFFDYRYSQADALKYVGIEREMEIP
# Recombinant PRC2 (EZH2-Y641F), sequence (O75530 whole entry partner): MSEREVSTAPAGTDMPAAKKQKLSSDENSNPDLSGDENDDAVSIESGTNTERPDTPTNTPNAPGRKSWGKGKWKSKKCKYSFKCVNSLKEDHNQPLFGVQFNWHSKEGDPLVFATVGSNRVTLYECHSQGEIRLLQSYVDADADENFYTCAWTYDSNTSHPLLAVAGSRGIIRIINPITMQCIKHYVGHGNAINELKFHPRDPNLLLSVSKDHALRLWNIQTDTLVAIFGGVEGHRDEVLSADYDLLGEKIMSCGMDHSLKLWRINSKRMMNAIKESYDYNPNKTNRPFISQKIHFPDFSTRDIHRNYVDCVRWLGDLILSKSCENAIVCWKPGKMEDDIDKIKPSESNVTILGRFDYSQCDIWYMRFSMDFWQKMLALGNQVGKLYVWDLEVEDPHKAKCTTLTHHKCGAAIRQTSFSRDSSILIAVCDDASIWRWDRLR
# Recombinant PRC2 (EZH2-Y641F), sequence (Q15022 whole entry partner): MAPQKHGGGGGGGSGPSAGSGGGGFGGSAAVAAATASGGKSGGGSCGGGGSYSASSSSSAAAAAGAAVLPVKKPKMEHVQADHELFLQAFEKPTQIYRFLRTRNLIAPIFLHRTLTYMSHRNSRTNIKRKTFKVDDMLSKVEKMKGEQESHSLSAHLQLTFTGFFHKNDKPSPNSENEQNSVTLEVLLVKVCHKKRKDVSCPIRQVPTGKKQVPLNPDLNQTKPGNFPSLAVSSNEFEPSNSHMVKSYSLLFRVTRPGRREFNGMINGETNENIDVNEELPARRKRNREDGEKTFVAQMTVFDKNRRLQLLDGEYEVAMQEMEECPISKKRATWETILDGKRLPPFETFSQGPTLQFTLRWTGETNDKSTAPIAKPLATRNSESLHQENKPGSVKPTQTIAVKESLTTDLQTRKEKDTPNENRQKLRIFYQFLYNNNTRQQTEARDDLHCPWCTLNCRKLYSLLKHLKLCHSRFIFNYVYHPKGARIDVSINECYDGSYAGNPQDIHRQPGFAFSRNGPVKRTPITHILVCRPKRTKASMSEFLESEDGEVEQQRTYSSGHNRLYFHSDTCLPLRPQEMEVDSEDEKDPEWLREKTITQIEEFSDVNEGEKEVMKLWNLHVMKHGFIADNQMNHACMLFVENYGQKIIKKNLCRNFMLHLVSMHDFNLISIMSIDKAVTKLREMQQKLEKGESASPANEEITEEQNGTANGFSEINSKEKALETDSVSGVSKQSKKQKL
# Recombinant PRC2 (EZH2-Y641F), sequence (Q09028 whole entry partner): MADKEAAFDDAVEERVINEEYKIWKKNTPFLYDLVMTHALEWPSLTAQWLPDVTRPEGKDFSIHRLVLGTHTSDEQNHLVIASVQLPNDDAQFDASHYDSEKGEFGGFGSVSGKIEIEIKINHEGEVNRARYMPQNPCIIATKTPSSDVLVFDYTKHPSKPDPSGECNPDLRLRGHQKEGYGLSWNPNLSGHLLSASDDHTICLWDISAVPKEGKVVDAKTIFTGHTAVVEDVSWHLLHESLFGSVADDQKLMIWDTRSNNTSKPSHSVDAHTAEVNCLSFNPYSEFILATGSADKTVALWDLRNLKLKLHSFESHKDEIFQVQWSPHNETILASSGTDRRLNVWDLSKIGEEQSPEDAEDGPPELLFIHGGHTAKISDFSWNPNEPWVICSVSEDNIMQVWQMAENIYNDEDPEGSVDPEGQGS
# Recombinant PRC2 (EZH2-Y641F), sequence (Q6ZN18 whole entry partner): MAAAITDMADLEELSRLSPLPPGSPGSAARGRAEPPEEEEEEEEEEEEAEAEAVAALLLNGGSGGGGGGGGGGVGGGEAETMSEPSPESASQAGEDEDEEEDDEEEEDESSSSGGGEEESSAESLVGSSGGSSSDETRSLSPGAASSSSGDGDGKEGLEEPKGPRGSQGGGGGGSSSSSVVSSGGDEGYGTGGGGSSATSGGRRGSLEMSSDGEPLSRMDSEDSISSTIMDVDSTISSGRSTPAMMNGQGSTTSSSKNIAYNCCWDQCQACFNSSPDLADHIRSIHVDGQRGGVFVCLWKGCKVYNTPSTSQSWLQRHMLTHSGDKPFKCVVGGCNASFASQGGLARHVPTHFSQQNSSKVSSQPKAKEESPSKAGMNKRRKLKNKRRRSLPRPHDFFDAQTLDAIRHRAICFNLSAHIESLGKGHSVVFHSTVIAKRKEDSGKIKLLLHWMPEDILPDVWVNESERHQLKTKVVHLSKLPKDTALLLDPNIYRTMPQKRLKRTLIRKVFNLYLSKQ
row,Structure (SMILES),IC50 [nM]
1,"CCN(c1cc(Br)cc2c(NCc3c(C)cc(C)[nH]c3=O)nccc12)C1CCOCC1 [Compound Z-3, 3-((7-bromo-5-(ethyl (tetrahydro-2H-pyran-4-yl)amino)isoquinolin-1-ylamino)methyl)-4,6-dimethyl-2(1H)-one]",186
2,CCN(c1cc(-c2ccccc2)cc2c(NCc3c(C)cc(C)[nH]c3=O)nccc12)C1CCC(N(C)C)CC1 (stereo not shown) [Compound Z-75],128
3,"CCN(c1cc(Cl)cc2c(NCc3c(C)cc(C)[nH]c3=O)nccc12)C1CCOCC1 [Compound Z-4, 3-((7-chloro-5-(ethyl (tetrahydro-2H-pyran-4-yl)amino)isoquinolin-1-ylamino)methyl)-4,6-dimethyl-2(1H)-one]",295
4,CCN(c1cc(-c2ccc(CN3CCCCC3)cc2)cc2c(NCc3c(C)cc(C)[nH]c3=O)nccc12)C1CCOCC1 [Compound Z-23],212
5,CCN(c1cc(-c2cn[nH]c2)cc2c(NCc3c(C)cc(C)[nH]c3=O)nccc12)C1CCOCC1 [Compound Z-14],426
6,"CCN(c1cc(C(F)(F)F)cc2c(NCc3c(C)cc(C)[nH]c3=O)nccc12)C1CCOCC1 [Compound Z-16, 3-((5-(ethyl (tetrahydro-2H-pyran-4-yl)amino)-7-(trifluoromethyl)isoquinolin-1-ylamino)methyl)-4,6-dimethyl-2(1H)-one]",428
7,CCN(c1cc(C(N)=O)cc2c(NCc3c(C)cc(C)[nH]c3=O)nccc12)C1CCOCC1 [Compound Z-18],284
8,CCN(c1cc(C2=CCN(C)CC2)cc2c(NCc3c(C)cc(C)[nH]c3=O)nccc12)C1CCC(N(C)C)CC1 (stereo not shown) [Compound Z-61],12
9,CCN(c1cc(-c2ccc(CN3CCOCC3)cc2)cc2c(NCc3c(C)cc(C)[nH]c3=O)nccc12)C1CCOCC1 [Compound Z-1],422
10,CCN(c1cc(-c2cnn(C)c2)cc2c(NCc3c(C)cc(C)[nH]c3=O)nccc12)[C@H]1CC[C@H](N(C)C)CC1 [Compound Z-38],138
11,"CCN(c1cc(C(F)(F)F)cc2c(NCc3c(C)cc(C)[nH]c3=O)nccc12)C1CCNCC1 [Compound Z-13, 3-((5-(ethyl (piperidin-4-yl)amino)-7-(trifluoromethyl)isoquinolin-1-ylamino)methyl)-4,6-dimethylpyridine-2(1H)-one]",92
12,CCN(c1cc(-c2cncc(C(F)(F)F)c2)cc2c(NCc3c(C)cc(C)[nH]c3=O)nccc12)[C@H]1CC[C@H](N(C)C)CC1 [Compound Z-77],177

# The remaining lines, values ahead:
row,IC50 [nM],Structure (SMILES)
1,198,CCN(c1cc(-c2ccc(Oc3cccnc3)cc2)cc2c(NCc3c(C)cc(C)[nH]c3=O)nccc12)C1CCC(N(C)C)CC1 (stereo not shown) [Compound Z-78]
2,373,CCN(c1cc(C(C)C)cc2c(NCc3c(C)cc(C)[nH]c3=O)nccc12)[C@H]1CC[C@H](N(C)C)CC1 [Compound Z-214]
3,53,CCN(c1cc(-c2ccc(N3CCN(C)CC3)nc2)cc2c(NCc3c(C)cc(C)[nH]c3=O)nccc12)C1CCN(CCOC)CC1 [Compound Z-81]
4,152,CCN(c1cc(Cl)cc2c(NCc3c(C)cc(C)[nH]c3=O)nccc12)C1CCN(C(C)=O)CC1 [Compound Z-144]
5,374,CCN(c1cc(C(=O)N(C)C)cc2c(NCc3c(C)cc(C)[nH]c3=O)nccc12)[C@H]1CC[C@H](N(C)C)CC1 [Compound Z-170]
6,83,CCN(c1cc(-c2ccc(CN3CCN(C)CC3)nc2)cc2c(NCc3c(C)cc(C)[nH]c3=O)nccc12)C1CCN(C2CC2)CC1 [Compound Z-84]
7,244,CCN(c1cc(-c2ccc(Oc3ccncc3)cc2)cc2c(NCc3c(C)cc(C)[nH]c3=O)nccc12)C1CCC(N(C)C)CC1 (stereo not shown) [Compound Z-83]
8,15,CCN(c1cc(C(=O)NC)cc2c(NCc3c(C)cc(C)[nH]c3=O)nccc12)[C@H]1CC[C@H](N(C)C)CC1 [Compound Z-166]
9,81,CCN(c1cc(C(=O)NC2CCN(C)CC2)cc2c(NCc3c(C)cc(C)[nH]c3=O)nccc12)C1CCC(N(C)C)CC1 (stereo not shown) [Compound Z-172]
10,472,CCN(c1cc(Oc2ccccc2)cc2c(NCc3c(C)cc(C)[nH]c3=O)nccc12)[C@H]1CC[C@H](N(C)C)CC1 [Compound Z-190]

# Source: patent publication US20200262813A1, “1,5,7-TRISUBSTITUTED ISOQUINOLINE DERIVATIVES, PREPARATION THEREOF, AND USE THEREOF IN MEDICINES” (SHANGHAI HAIYAN PHARMACEUTICAL TECHNOLOGY CO., LTD., priority 2016, published 2020)
